System: A172 glioblastoma cells
Test: A172 cell viability / proliferation (CellTiter-Glo)
Format: cell-based
Details: Homo sapiens, A 172, 48-72 hours treatment, read-out: IC50 for A172 cell growth
Method: (§1) A172 glioblastoma cells were cultured in Dulbecco's modified Eagle's medium (DMEM) supplemented with 10% fetal bovine serum and 1% Penicillin-streptomycin. Incubation was performed at 37° C. and 5% CO2.
A172 cells were seeded at 3000-3500 cells/90 μL growth medium per well on 96-well tissue culture plates. Cells were incubated overnight to allow them to recover and reattach. Next day cells were treated with tested compounds and incubated for 48-72 hours.
Cell Proliferation assays in triplicate were performed at each concentration. Compounds test range was 1-30 µM (0, 5, 10, 15, 20, 25, and 30). The compounds were dissolved in DMSO. […]
After treatment, cells were allowed to equilibrate at room temperature for 1/2 to one hour. Cell proliferation was measured by Luminescence quantification using Promega CellTiter-Glo Luminescent Cell Viability Assay. […] Luminescence intensity was measured using the Spectramax i3× plate reader.
The Luminescence intensity data were analyzed using the computer software Graphpad Prism. In the absence of the compound, the luminescence intensity (Lt) in each data set was defined as 100% cell viability. The percent cell in the presence of each compound was calculated according to the following equation: % Cell=L/Lt, were L=the luminescence intensity in the presence of the compound. […]

IC50 [µM] | SMILES
14.7 | O=S(=O)(NC1CCOC(C2c3ccccc3CCc3ccccc32)C1)c1ccc(OC(F)(F)F)cc1 (racemic) [Example 2, N-(2-(10,11-dihydro-5H-dibenzo[a,d][7]annulen-5-yl)tetrahydro-2H-pyran-4-yl)-4-(trifluoromethoxy)benzenesulfonamide]

System: D425 medulloblastoma cells
Test: D425 cell viability / proliferation (CellTiter-Glo)
Format: cell-based
Details: @ 30 μM, 48 hours
Method: D425 medulloblastoma cells were purchased from SigmaAldrich. D425 meduloblastoma cells were cultured in improved Dulbecco's modified Eagle's medium (DMEM) Richter's modification supplemented with 20% fetal bovine serum and 1% Penicillin-streptomycin. Incubation was performed at 37° C. and 5% CO2.
D425 cells were seeded at 3000-3500 cells/90 ul growth medium per well on 96-well tissue culture plates. Cells were incubated overnight to allow them to recover. Next day cells were treated with tested compounds and incubated for 48 hours.
Cell Proliferation assays in triplicate were performed at each concentration. Compounds test range was 1-30 μM (0, 5, 10, 15, 20, 25, and 30). The compounds were dissolved in DMSO. A series of dilutions were made in 1% DMSO in growth medium so that the final concentration of DMSO is 0.1% in all of treatments.
After treatment, cells were allowed to equilibrate at room temperature for one hour. Cell proliferation was measured by Luminescence quantification using Promega CellTiter-Glo Luminescent Cell Viability Assay. To perform the assay, 90 ul of Celltiter-Glo substrate was added to each well, plates were shake for 2 minutes and allowed to equilibrate for 10 minutes at room temperature. Luminescence intensity was measured using the Spectramax i3x plate reader.
The Luminescence intensity data were analyzed using the computer software Graphpad Prism. In the absence of the compound, the luminescence intensity (Lt) in each data set was defined as 100% cell viability. The percent cell in the presence of each compound was calculated according to the following equation: % Cell=L/Lt, were L=the luminescence intensity in the presence of the compound.
The values of % cell versus a series of compound concentrations (0, 5, 10, 15, 20, 25, and 30 μM) were then plotted using Nonlinear regression analysis of Sigmoidal dose-response curve. IC50 value was determined by the concentration causing a half-maximal percent activity.

SMILES | D425 cell growth, effect at single concentration [% @ 30 μM]
O=C(NC1CCOC(C2c3ccccc3CCc3ccccc32)C1)c1ccc(OC(F)(F)F)cc1 (stereo not drawn) [Example 14, N-(2-(10,11-dihydro-5H-dibenzo[a,d][7]annulen-5-yl)tetrahydro-2H-pyran-4-yl)-4-(trifluoromethoxy)benzamide] | ~50

Same assay, conditions: Medulloblastoma cell; 48 hours treatment, CellTiter-Glo; read-out: IC50 for D425 cell growth

SMILES | IC50 [µM]
O=S(=O)(NC1CCOC(C(c2ccc(F)cc2)c2ccc(F)cc2)C1)c1ccc(OC(F)(F)F)cc1 (stereo not drawn) [Example 16, N-(2-(bis(4-fluorophenyl)methyl)tetrahydro-2H-pyran-4-yl)-4-(trifluoromethoxy)benzenesulfonamide] | 7.3
O=S(=O)(NC1CCOC(C(c2ccccc2)c2ccccc2)C1)c1ccc(OC(F)(F)F)cc1 (stereo not drawn) [Example 15, N-(2-benzhydryltetrahydro-2H-pyran-4-yl)-4-(trifluoromethoxy)benzenesulfonamide] | 11.2
Cc1ccc(S(=O)(=O)NC2CCOC(C3c4ccccc4CCc4ccccc43)C2)cc1 (stereo not drawn) [Example 11, N-(2-(10,11-dihydro-5H-dibenzo[a,d][7]annulen-5-yl)tetrahydro-2H-pyran-4-yl)-4-meth ylbenzenesulfonamide] | 9.5
O=S(=O)(NC1CCOC(C2c3ccccc3CCc3ccccc32)C1)c1ccc(OC(F)(F)F)cc1 (racemic) [Example 2, N-(2-(10,11-dihydro-5H-dibenzo[a,d][7]annulen-5-yl)tetrahydro-2H-pyran-4-yl)-4-(trifluoromethoxy)benzenesulfonamide] | 10.3

Now from value to compound:

IC50 [µM] | SMILES
5.3 | O=S(=O)(N[C@H]1CCO[C@@H](C2c3ccccc3CCc3ccccc32)C1)c1ccc(OC(F)(F)F)cc1 (single isomer, unassigned) [Example 7]
5.1 | O=S(=O)(NC1CCOC(C2c3ccccc3CCc3ccccc32)C1)c1cccc(C(F)(F)F)c1 (stereo not drawn) [Example 13, N-(2-(10,11-dihydro-5H-dibenzo[a,d][7]annulen-5-yl)tetrahydro-2H-pyran-4-yl)-3-(trifluoromethyl)benzenesulfonamide]
6.6 | O=S(=O)(NC1CCOC(C2c3ccccc3CCc3ccccc32)C1)c1ccc(Cl)cc1 (stereo not drawn) [Example 9, 4-chloro-N-(2-(10,11-dihydro-5H-dibenzo[a,d][7]annulen-5-yl)tetrahydro-2H-pyran-4-yl)benzenesulfonamide]
6 | O=S(=O)(NC1CCOC(C2c3ccccc3CCc3ccccc32)C1)c1ccc(C(F)(F)F)cc1 (stereo not drawn) [Example 10, N-(2-(10,11-dihydro-5H-dibenzo[a,d][7]annulen-5-yl)tetrahydro-2H-pyran-4-yl)-4-(trifluoromethyl)benzenesulfonamide]
6.2 | O=S(=O)(NC1CCOC(C2c3ccccc3CCc3ccccc32)C1)c1ccc(Br)cc1 (stereo not drawn) [Example 12, 4-bromo-N-(2-(10,11-dihydro-5H-dibenzo[a,d][7]annulen-5-yl)tetrahydro-2H-pyran-4-yl)benzenesulfonamide]

System: phosphatase activity in ApoE transfected A172 glioblastoma cells
Test: Cellular in vitro phosphatase activation assay (Malachite Green) in ApoE transfected A172 cells
Format: cell-based
Details: 24 hours
Method: Cellular in vitro phosphatase activation assay was performed using the method of Theendakara et al, Molecular and Cellular Neuroscience, 83 (2017), pages 83-91 which is described below:
as §1
A172 cells were seeded at 5×10^5 cells/2.5 ml growth medium (without antibiotics) per well on 6-well tissue culture plates. Cells were incubated overnight to allow them to recover and reattach. […]
After 24 hrs, cells were washed twice with imidazole buffer and lysed using NP-40 Lysis buffer. […] The amount of phosphate release in the assay was determined by measuring absorbance at 620 nm using the Spectramax i3x plate reader.
The absorbance intensity data were analyzed using the computer software Graphpad Prism. The phosphate concentration for each sample was determined from the standard curve using phosphate standard concentrations. In order to compare samples, the first set (column A) were there was no transfection performed and no compound added, was designated a baseline; the absorbance measurement in this column was set as 100% phosphatase activity.

SMILES | % increase from ApoE transfected cell at 5 μM test compound concentration [%]
O=S(=O)(NC1CCOC(C2c3ccccc3CCc3ccccc32)C1)c1ccc(OC(F)(F)F)cc1 (racemic) [Example 2, N-(2-(10,11-dihydro-5H-dibenzo[a,d][7]annulen-5-yl)tetrahydro-2H-pyran-4-yl)-4-(trifluoromethoxy)benzenesulfonamide] | 7.2
